Converted amounts (≈) assume the structure as drawn. Where two headings read alike, the source gives them in different places.
Columns and labels:
[1] = system: N. gonorrhoeae WHO K; assay: Liquid broth MIC in Fastidious broth; settings: Neisseria gonorrhoeae
[2] = target: T1, PBP3 from Escherichia coli (K-12) (Escherichia coli, UniProt P0AD68); assay: Bocillin-FL fluorescence polarization competition binding, E. coli PBP3
T1 construct: made in house
Outline: (§1)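 Purified PBP was preincubated with inhibitor (E. coli PBP3 1.5 μM, 30 min; P. aeruginosa PBP3 0.75 μM, A. baumannii PBP3 0.2 μM and PBP1a 1 μM, 15 min), then Bocillin-FL (0.1 μM; 0.05 μM for PBP1a) added and FP read up to 60 min. EC50 = 50% loss of bound probe.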

[3] = system: N. gonorrhoeae WHO Z; assay: Liquid broth MIC in Fastidious broth; settings: Neisseria gonorrhoeae
[4] = system: A. baumannii CDC-0033; assay: microbe, parasite or virus in culture; format: cell-based; settings: Acinetobacter baumannii, CDC0033, read-out: MIC, A. baumannii CDC-0033
[5] = system: A. baumannii ATCC 17978; assay: microbe, parasite or virus in culture; format: cell-based; settings: Acinetobacter baumannii, ATCC17978, read-out: MIC, A. baumannii ATCC 17978
[6] = system: A. baumannii ATCC 19606; assay: microbe, parasite or virus in culture; format: cell-based; settings: Acinetobacter baumannii, ATCC19606, read-out: MIC, A. baumannii ATCC 19606
[7] = system: P. aeruginosa (ΔmexAB-oprM); assay: Broth microdilution MIC in iron-depleted CAMHB (IDM); format: cell-based; settings: Pseudomonas aeruginosa; iron-depleted CAMHB (IDM); […]; read-out: Minimum inhibitory concentration, P. aeruginosa ΔmexAB-oprM
[8] = target: T2, PBP1a from Acinetobacter baumannii (ATCC 19606) (Acinetobacter baumannii, UniProt A0ABX6CK30); assay: Bocillin-FL fluorescence polarization competition binding, A. baumannii PBP1a; settings: fluorescence polarization competition binding assay using Bocillin-FL; read-out: A. baumannii PBP1a Potency
T2 sequence (A0ABX6CK30 1-851): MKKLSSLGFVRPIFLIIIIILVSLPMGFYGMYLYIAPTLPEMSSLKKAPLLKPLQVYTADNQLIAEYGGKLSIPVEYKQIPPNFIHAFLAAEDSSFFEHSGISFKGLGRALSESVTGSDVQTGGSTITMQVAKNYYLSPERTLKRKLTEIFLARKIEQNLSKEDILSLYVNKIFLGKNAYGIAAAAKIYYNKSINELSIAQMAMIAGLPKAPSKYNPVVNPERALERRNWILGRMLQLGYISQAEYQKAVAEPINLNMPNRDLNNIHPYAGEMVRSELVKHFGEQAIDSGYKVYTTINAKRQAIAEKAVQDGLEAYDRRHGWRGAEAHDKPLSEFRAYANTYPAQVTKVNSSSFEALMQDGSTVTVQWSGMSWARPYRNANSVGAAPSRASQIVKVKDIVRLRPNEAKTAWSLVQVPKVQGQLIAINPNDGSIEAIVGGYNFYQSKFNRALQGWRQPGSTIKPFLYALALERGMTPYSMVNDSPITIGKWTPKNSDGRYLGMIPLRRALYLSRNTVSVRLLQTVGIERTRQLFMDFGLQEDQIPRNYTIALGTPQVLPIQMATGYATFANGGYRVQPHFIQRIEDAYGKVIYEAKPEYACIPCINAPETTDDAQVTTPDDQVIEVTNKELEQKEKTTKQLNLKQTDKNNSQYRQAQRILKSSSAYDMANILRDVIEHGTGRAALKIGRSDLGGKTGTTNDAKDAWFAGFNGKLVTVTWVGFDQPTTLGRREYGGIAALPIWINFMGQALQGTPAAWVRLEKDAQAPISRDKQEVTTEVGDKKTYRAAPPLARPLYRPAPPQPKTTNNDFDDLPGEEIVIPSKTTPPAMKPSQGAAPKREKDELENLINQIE
Outline: as §1

[9] = read-out: Minimum Inhibitory Concentration (MIC), N. gonorrhoeae WHO K
[10] = read-out: Minimum Inhibitory Concentration (MIC), N. gonorrhoeae WHO Z

T1 sequence (P0AD68 1-577): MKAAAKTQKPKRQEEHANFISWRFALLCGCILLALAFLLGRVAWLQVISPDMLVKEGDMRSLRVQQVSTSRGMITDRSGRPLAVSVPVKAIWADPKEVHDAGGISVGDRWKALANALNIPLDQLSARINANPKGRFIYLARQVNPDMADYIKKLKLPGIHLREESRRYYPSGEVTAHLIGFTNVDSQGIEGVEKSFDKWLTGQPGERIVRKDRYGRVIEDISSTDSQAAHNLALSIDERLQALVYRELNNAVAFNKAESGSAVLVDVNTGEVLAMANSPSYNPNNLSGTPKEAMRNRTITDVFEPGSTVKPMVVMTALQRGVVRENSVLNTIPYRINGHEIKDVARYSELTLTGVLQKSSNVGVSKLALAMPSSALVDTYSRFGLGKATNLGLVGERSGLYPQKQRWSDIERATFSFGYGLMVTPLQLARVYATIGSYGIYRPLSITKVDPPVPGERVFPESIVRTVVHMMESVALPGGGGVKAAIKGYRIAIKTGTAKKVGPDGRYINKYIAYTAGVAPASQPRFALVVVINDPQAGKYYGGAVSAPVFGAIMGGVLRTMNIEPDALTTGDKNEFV

SMILES | MIC [1, 9] [µg/mL] | EC50 [2] [µM] | MIC [3, 10] [µg/mL] | MIC [4] [µg/mL] | MIC [5] [µg/mL] | MIC [6] [µg/mL] | MIC [7] [µg/mL] | IC50 [8] [µM] | MIC ([1]; read-out: Minimum Inhibitory Concentration, WHO K) [µg/mL] | MIC ([3]; read-out: Minimum Inhibitory Concentration, WHO Z) [µg/mL]
O=C(O)c1cccc2c1OB(O)[C@@H](NC(=O)[C@@H](NC(=O)c1cnc3n(c1=O)CCS3)c1ccc(P(=O)(O)O)cc1)C2 (single isomer, unassigned) [Example 196] | 16 to 32 (≈ 26.7 to 53.3 µM) | > 250 | 16 to 32 (≈ 26.7 to 53.3 µM) | – | – | – | – | – | – | –
O=C(O)c1cccc2c1OB(O)[C@@H](NC(=O)[C@H](NC(=O)c1cnc3n(c1=O)CCS3)c1ccc(P(=O)(O)O)cc1)C2 (single isomer, unassigned) [Example 197] | 16 to 32 (≈ 26.7 to 53.3 µM) | 10 to 50 | 16 to 32 (≈ 26.7 to 53.3 µM) | – | – | – | – | – | – | –
CCN1CCN(C(=O)NC(C(=O)N[C@H]2Cc3cccc(C(=O)O)c3OB2O)c2ccc(P(=O)(O)O)c(F)c2O)C(=O)C1=O (stereo partly drawn) [Example 198, (3R)-3-(2-(4-ethyl-2,3-dioxopiperazine-1-carboxamido)-2-(3-fluoro-2-hydroxy-4-phosphonophenyl)acetamido)-2-hydroxy-3,4-dihydro-2H-benzo[e][1,2]oxaborinine-8-carboxylic acid] | 4 to 8 (≈ 6.43 to 12.9 µM) | 10 to 50 | 1 to 2 (≈ 1.61 to 3.21 µM) | – | – | – | – | – | – | –
CN(CCN1CCN(C(=O)N[C@@H](C(=O)N[C@H]2Cc3ccc(F)c(C(=O)O)c3OB2O)c2cc(F)c(O)c(O)c2Cl)C(=O)C1=O)Cc1nccs1 [Example 200, (R)-3-((R)-2-(2-chloro-5-fluoro-3,4-dihydroxyphenyl)-2-(4-(2-(methyl(thiazol-2-ylmethyl)amino)ethyl)-2,3-dioxopiperazine-1-carboxamido)acetamido)-7-fluoro-2-hydroxy-3,4-dihydro-2H-benzo[e][1,2]oxaborinine-8-carboxylic acid] | 16 to 32 (≈ 21.7 to 43.4 µM) | 10 to 50 | 16 to 32 (≈ 21.7 to 43.4 µM) | 2 to 4 (≈ 2.71 to 5.43 µM) | < 1 | < 1 | < 1 | > 250 | – | –
CN(CCN1CCN(C(=O)N[C@@H](C(=O)N[C@H]2Cc3ccc(F)c(C(=O)O)c3OB2O)c2cc(F)c(O)c(O)c2Cl)C(=O)C1=O)Cc1cccnc1 [Example 201, (R)-3-((R)-2-(2-chloro-5-fluoro-3,4-dihydroxyphenyl)-2-(4-(2-(methyl(pyridin-3-ylmethyl)amino)ethyl)-2,3-dioxopiperazine-1-carboxamido)acetamido)-7-fluoro-2-hydroxy-3,4-dihydro-2H-benzo[e][1,2]oxaborinine-8-carboxylic acid] | 16 to 32 (≈ 21.9 to 43.8 µM) | < 10 | > 64 | 2 to 4 (≈ 2.74 to 5.47 µM) | < 1 | < 1 | < 1 | > 250 | – | –
O=C(NCCCN1CCN(C(=O)NC(C(=O)N[C@H]2Cc3ccc(F)c(C(=O)O)c3OB2O)c2cc(F)c(O)c(O)c2Cl)C(=O)C1=O)c1ccccc1 (stereo partly drawn) [Example 202, (3R)-3-(2-(4-(3-benzamidopropyl)-2,3-dioxopiperazine-1-carboxamido)-2-(2-chloro-5-fluoro-3,4-dihydroxyphenyl)acetamido)-7-fluoro-2-hydroxy-3,4-dihydro-2H-benzo[e][1,2]oxaborinine-8-carboxylic acid] | > 64 | < 10 | > 64 | 8 to 16 (≈ 10.8 to 21.5 µM) | < 1 | < 1 | < 1 | > 250 | – | –
O=C(NCCCN1CCN(C(=O)NC(C(=O)N[C@H]2Cc3ccc(F)c(C(=O)O)c3OB2O)c2cc(F)c(O)c(O)c2Cl)C(=O)C1=O)c1ccc(O)cc1 (stereo partly drawn) [Example 203, (3R)-3-(2-(2-chloro-5-fluoro-3,4-dihydroxyphenyl)-2-(4-(3-(4-hydroxybenzamido)propyl)-2,3-dioxopiperazine-1-carboxamido)acetamido)-7-fluoro-2-hydroxy-3,4-dihydro-2H-benzo[e][1,2]oxaborinine-8-carboxylic acid] | > 64 | < 10 | 16 to 32 (≈ 21.1 to 42.1 µM) | 2 to 4 (≈ 2.63 to 5.26 µM) | < 1 | < 1 | < 1 | > 250 | – | –
O=C(NCCCN1CCN(C(=O)NC(C(=O)N[C@H]2Cc3ccc(F)c(C(=O)O)c3OB2O)c2cc(F)c(O)c(O)c2Cl)C(=O)C1=O)c1cccc(O)c1 (stereo partly drawn) [Example 204, (3R)-3-(2-(2-chloro-5-fluoro-3,4-dihydroxyphenyl)-2-(4-(3-(3-hydroxybenzamido)propyl)-2,3-dioxopiperazine-1-carboxamido)acetamido)-7-fluoro-2-hydroxy-3,4-dihydro-2H-benzo[e][1,2]oxaborinine-8-carboxylic acid] | > 64 | < 10 | 16 to 32 (≈ 21.1 to 42.1 µM) | 2 to 4 (≈ 2.63 to 5.26 µM) | < 1 | < 1 | < 1 | – | – | –
O=C(NCCCN1CCN(C(=O)NC(C(=O)N[C@H]2Cc3ccc(F)c(C(=O)O)c3OB2O)c2cc(F)c(O)c(O)c2Cl)C(=O)C1=O)c1ccncc1 (stereo partly drawn) [Example 205, (3R)-3-(2-(2-chloro-5-fluoro-3,4-dihydroxyphenyl)-2-(4-(3-(isonicotinamido)propyl)-2,3-dioxopiperazine-1-carboxamido)acetamido)-7-fluoro-2-hydroxy-3,4-dihydro-2H-benzo[e][1,2]oxaborinine-8-carboxylic acid] | > 64 | < 10 | 16 to 32 (≈ 21.5 to 43 µM) | 2 to 4 (≈ 2.69 to 5.37 µM) | < 1 | < 1 | < 1 | > 250 | – | –
CN(CCN1CCN(C(=O)N[C@@H](C(=O)N[C@H]2Cc3ccc(F)c(C(=O)O)c3OB2O)c2cc(F)c(O)c(O)c2Cl)C(=O)C1=O)Cc1cncc(O)c1 [Example 208, (R)-3-((R)-2-(2-chloro-5-fluoro-3,4-dihydroxyphenyl)-2-(4-(2-(((5-hydroxypyridin-3-yl)methyl)(methyl)amino)ethyl)-2,3-dioxopiperazine-1-carboxamido)acetamido)-7-fluoro-2-hydroxy-3,4-dihydro-2H-benzo[e][1,2]oxaborinine-8-carboxylic acid] | 16 to 32 (≈ 21.4 to 42.8 µM) | < 10 | 16 to 32 (≈ 21.4 to 42.8 µM) | 2 to 4 (≈ 2.68 to 5.36 µM) | < 1 | < 1 | < 1 | – | – | –
O=C(CN1CCN(C(=O)NC(C(=O)N[C@H]2Cc3ccc(F)c(C(=O)O)c3OB2O)c2cc(F)c(O)c(O)c2Cl)C(=O)C1=O)NCc1ccc(O)cc1 (stereo partly drawn) [Example 236, (3R)-3-(2-(2-chloro-5-fluoro-3,4-dihydroxyphenyl)-2-(4-(2-((4-hydroxybenzyl)amino)-2-oxoethyl)-2,3-dioxopiperazine-1-carboxamido)acetamido)-7-fluoro-2-hydroxy-3,4-dihydro-2H-benzo[e][1,2]oxaborinine-8-carboxylic acid] | – | < 10 | – | 8 to 16 (≈ 10.7 to 21.5 µM) | < 1 | < 1 | – | > 250 | – | –
O=C(NCCN1CCN(C(=O)NC(C(=O)N[C@H]2Cc3ccc(F)c(C(=O)O)c3OB2O)c2cc(F)c(O)c(O)c2Cl)C1=O)Nc1cccc(O)c1 (stereo partly drawn) [Example 249, (3R)-3-(2-(2-chloro-5-fluoro-3,4-dihydroxyphenyl)-2-(3-(2-(3-(3-hydroxyphenyl)ureido)ethyl)-2-oxoimidazolidine-1-carboxamido)acetamido)-7-fluoro-2-hydroxy-3,4-dihydro-2H-benzo[e][1,2]oxaborinine-8-carboxylic acid] | – | < 10 | – | 2 to 4 (≈ 2.73 to 5.46 µM) | < 1 | < 1 | < 1 | – | > 64 | 16 to 32 (≈ 21.8 to 43.7 µM)

From patent publication US20240270762A1, “PENICILLIN-BINDING PROTEIN INHIBITORS” (priority 2021, published 2024)
